The text below walks through data of patent US4585773A, “Isoindolinyl-alkyl-piperazines” (Bristol-Myers Company, priority 1984, dated 1986).

By IC50 is commonly meant the point on the concentration scale where inhibition reaches its midpoint.

In test [1] the test system is α blocking activity (phenylephrine). The experiment in a line: in vivo α blocking activity, phenylephrine (PE) as α-agonist (Table III). On the set-up: species or system rat; ED50: unit not given beside the values. The protocol: In this example the compounds of Examples I (modified), II, III, V, VI, VII, VIII, IX and XI were tested in rats for in vivo α blocking activity according to methodology described at page 312 of Deitchman, et al., Journal of Pharmacological Methods, 3, 311-321 (1980). In this test phenylephrine (PE below) or norepinephrine (NE below) was administered as an α-agonist to the rats before and after dosing with the test drug and the average interpolated dose or PE/NE effecting a 50 mm Hg increase in mean arterial blood pressure was determined. Table III below records the results. In such Table, ED50 stands for such average interpolated dose and Average Dose Shift stands for the average ratio of ED50 after drug administration to ED50 before drug administration. The compound of Example I was tested as its monochloride 2-propanolate hydrate, i.e. as C22 H27 ClN4 O4 S.HCl 0.2(CH3)2 CHOH.0.15H2 O in Tests 1-5 and as the 3/4 mole hydrochloride, i.e. C22 H27 ClN 4 O4 S.3/4HCL in Tests 2a and 3a. The route was intravenous except in the case of the runs of Test Nos. 2a, 3, 3a, 26-29 the route was oral.

In test [2] the test system is Spontaneously Hypertensive rat. As to the kind of experiment: antihypertensive activity, Spontaneously Hypertensive Rat (Table II). It counts as in vivo. How it is done:
Spontaneously Hypertensive Rat Male rats weighing 300-400 g, previously conditioned to the procedure, are prewarmed in a heating chamber (30° C.) for 10-20 min. and subsequently restrained in a wire holder at that temperature. Systolic blood pressure and heart rate are measured by the tailcuff technique using a pneumatic pulse transducer and a biotachometer before, and 2, 4, and 24 hours after oral administration of vehicle (0.25% Methocel in water) or test compounds suspended in vehicle at a dose volume equivalent to 5 ml/kg. Blood pressure and heart rate data are reported as changes from zero-hour measurements with vehicle control groups run periodically to confirm that the vehicle has no effect. Testing was carried out on the compounds of Examples I-XII for antihypertensive activity. In the case of all the compounds testing was carried out on the Spontaneously Hypertensive rat as described hereinbefore. In the case of the compounds of Examples I-IV testing was also carried out on the DOCA-salt Hypertensive Rat. The compound of Example I was tested as its monochloride 2-propanolate hydrate, i.e. as C22 […] ClN4 O4 S.HCl.0.2(CH3)2 CHOH.0.15H2 O in Tests 1-5; and as the 3/4 mole hydrochloride, i.e. C22 […] ClN4 O4 S: 3/4 HCl in Tests 3a, 4a, 5a-5d. Test results are set forth in Table II below wherein SHR stands for Spontaneously Hypertensive rat, DOCA stands for DOCA-salt Hypertensive Rat, ΔBP stands for the change in systolic blood pressure in mm Hg, ΔHR stands for the change in mean heart rate in beats per minute and the times set forth are the times after dosing. A peak change in ΔBP of more than 20 is considered as indicating activity.

Another test addresses α1. The experiment in a line: in vitro α1 binding, [3H]WB-4101 (Table IV). Particulars: [3H]WB-4101, brain tissue, 50 mM Hepes.KOH, pH 7.4; read-out: α1 Binding IC50. The protocol:
(§1) In this Example the compounds of Examples I-XI were tested in vitro for α1 and α2 binding. The compound of Example I was tested as its monochloride 2-propanolate hydrate, i.e. as C22 […] CLN4 O4 S .HCl.0.2(CH3)2 CHOH 0.15H2 O. In the testing specific brain tissues were prepared as sources of binding sites. Aliquots of the washed members are incubated with a low concentration of […]. After incubation at suitable temperature, the reaction mixture is treated to separate the membrane-bound radioligand Radioactivity is measured. Linear regression analysis of the probit value for the percent of binding occurring in the presence of varying concentrations of the compound of interest plotted against the concentration of the compound yields concentrations which inhibit 50% specific binding, the IC50. The assay buffer is 50 mM Hepes.KOH, pH 7.4. The ligand is [^3 H]WB-4101 from New England Nuclear for α1 and [^3 H]Clonidine from New England Nuclear for α2. The results are considered against phentolamine methanesulfonate (Reference) which is considered a good α-binder.

A further test deals with α2. The experiment in a line: in vitro α2 binding, [3H]Clonidine (Table IV). As to conditions: for IC50: [3H]Clonidine, brain tissue, 50 mM Hepes.KOH, pH 7.4, read-out: α2 Binding IC50. How it is done:
as §1

Test [3] is described as follows: conscious rat diuretic screen of Lipschitz (Table I). It counts as in vivo, rat (female Sprague Dawley; male Okamoto-Aoki). Particulars: female Sprague Dawley rats; for response vs control in vivo at 3 mg/kg / response vs control in vivo at 30 mg/kg: Rattus norvegicus, po. How it is done:
With respect to diuretic utility there can be mentioned the conscious rat diuretic screen of Lipschitz, et al. (J. Pharmacol. Exp. Therap. 79, 97-110 (1943)). In this test, dose response assays of diuretic, natruiretic and kaliuretic activity are determined by oral administration of the test substance. The compounds synthesized in Examples I-XI were tested for diuretic […]. The compound of Example I was tested as its monohydrochloride 2-propanolate hydrate, i.e. as C22 […] ClN4 O4 S.HCl. 0.2(CH3)2 CHOH.0.15H2 O. Testing was carried out by the diuretic screen of Lipschitz, et al. described previously. In Table I below Volume Ratio is the ratio of total volume excreted for the test comuound compared to the total volume excreted for the control, Na^+ Ratio is the Na^+ excreted for the test compound compared to the Na^+ excreted for the control, K^+ Ratio is the K^+ excreted for the test compound compared to the K^+ excreted for the control. Female Sprague Dawley rats were used in Test Nos. 1, 2, 6, 7, 11-29. Male Okamoto-Aoki rats were used in Test Nos. 3-5 and 8-10 and testing for antihypertensive activity was carried out simultaneously on the Test Nos. 3-5 rats. In some instances, compounds were retested at the same dose level.

Setting [4] is: ED50 after/before drug, PE, dose 10, intravenous.
Setting [5] is: 3 mg/kg oral, read-out: K+ Ratio.
[6] abbreviates: 3 mg/kg oral, read-out: Na+ Ratio.
The mark [7] stands for this setting: 3 mg/kg oral, read-out: Volume Ratio.
The mark [8] stands for this setting: 30 mg/kg oral, read-out: K+ Ratio.
Setting [9] is: 30 mg/kg oral, read-out: Na+ Ratio.
Setting [10] is: 30 mg/kg oral, read-out: Volume Ratio.

Read-outs that look alike come from different tables or passages of the source. A value given as a limit tells only on which side of the number the result lay.

Regarding `Cl.NS(=O)(=O)c1cc2c(cc1Cl)CN(CCCN1CCN(C(=O)c3ccccc3)CC1)C2=O.O` [Example VII, 1-[3-[5-(aminosulfonyl)-6-chloro-1,3-dihydro-3-oxo-2H-isoindol-2-yl]propyl]-4-benzoylpiperazine hydrochloride monohydrate], in test [1] (setting [4]), the “Average Dose Shift” value is above 1.0. In test [1] (ED50 of PE after test drug, dose 10, intravenous), this compound returned an ED50 of 2.6. The “ΔBP 2 hours” value in test [2] (SHR, 30 mg/kg oral) was -7 ± 8 mm Hg. For the same compound, the “ΔBP 4 hours” value in test [2] (SHR, 30 mg/kg oral) is recorded as -14 ± 3 mm Hg. Further, in test [2] (SHR, 30 mg/kg oral), the “ΔHR 2 hours” value is given as -32 ± 14 beats per minute. Moreover, in test [2] (SHR, 30 mg/kg oral), the “ΔHR 4 hours” value is given as -74 ± 24 beats per minute. Besides, the IC50 on α1 is 152 µM; on α2 it was above 1 µM. The results for the “Urinary Na/K (Test Compound)” value in test [3] (3 mg/kg oral) and in test [3] (30 mg/kg oral) were 2.07 and 3.27, respectively. The response vs control in vivo at 3 mg/kg was 113% in test [3] (setting [5]), 92% in test [3] (setting [6]) and 89% in test [3] (setting [7]). Besides, the response vs control in vivo at 30 mg/kg in test [3] (setting [8]) was found to be 111%; in test [3] (setting [9]), 140%; in test [3] (setting [10]), 112%.
`NS(=O)(=O)c1cc2c(cc1Cl)CN(CCCN1CCN(C(=O)c3ccc(F)cc3)CC1)C2=O` [Example VIII, 1-[3-[5-(Aminosulfonyl)-6-chloro-1,3-dihydro-3-oxo-2H-isoindol-2-yl]propyl]-4-(4-fluorobenzoyl)piperazine]: the “Average Dose Shift” value in test [1] (setting [4]) is recorded as 1 ± 0.1. For the same compound, the “ΔBP 2 hours” value in test [2] (SHR, 30 mg/kg oral) is reported as -9 ± 5 mm Hg. For the same compound, the “ΔBP 4 hours” value in test [2] (SHR, 30 mg/kg oral) is given as -9 ± 4 mm Hg. Further, the “ΔHR 2 hours” value in test [2] (SHR, 30 mg/kg oral) was 2 ± 15 beats per minute. The “ΔHR 4 hours” value in test [2] (SHR, 30 mg/kg oral) was 24 ± 15 beats per minute. The half-inhibitory concentration (IC50) on α1 is 144 µM; at α2, above 1 µM. Further, the figures for the “Urinary Na/K (Test Compound)” value in test [3] (3 mg/kg oral) and in test [3] (30 mg/kg oral) were 2.60 and 3.69, respectively. For the same compound, the response vs control in vivo at 3 mg/kg was 94% in test [3] (setting [5]), 98% in test [3] (setting [6]) and 89% in test [3] (setting [7]). Also, the response vs control in vivo at 30 mg/kg came to 99% in test [3] (setting [8]), 142% in test [3] (setting [9]) and 122% in test [3] (setting [10]).
As for `Cl.NS(=O)(=O)c1cc2c(cc1Cl)CN(CCCN1CCN(c3ccccc3)CC1)C2=O.O` [Example X, 6-chloro-2,3-dihydro-3-oxo-2-[3-(4-phenyl-1-piperazinyl)propyl]-1H-isoindole-5-sulfonamide hydrochloride hydrate], in test [1] (conclusion from Table III), the “in vivo α blocking activity (in words)” value is given as “active as in vivo α blockers”. Also, the “Average Dose Shift” value in test [1] (iv) was 13 ± 2. Moreover, the ED50 in test [1] (iv) is 45.0. Also, the “peak change at 2 hours in ΔBP” value in test [2] (SHR, 30 mg/kg oral) is on record as -34 mm Hg. Also, the “antihypertensive effect (in words)” value in test [2] (conclusion from Table II (SHR, and DOCA for Examples I-IV)) is given as “good antihypertensive effect without significantly affecting heart rate”. Besides, the figures for the IC50 at α1 and at α2 were 0.016 µM and 0.666 µM, respectively. In the test with α2, the “α2 binding activity (in words)” value is “α2 binding activity”. Also, the “Urinary Na/K (Test Compound)” value in test [3] (3 mg/kg oral) turned out to be 3.19; in test [3] (30 mg/kg oral) it was 2.83. Besides, the response vs control in vivo at 3 mg/kg in test [3] (setting [5]) came out at 121%; in test [3] (setting [6]), 138%; in test [3] (setting [7]), 124%. In addition, the values for the response vs control in vivo at 30 mg/kg in test [3] (setting [8]), in test [3] (setting [9]) and in test [3] (setting [10]) were 157%, 163% and 153%, respectively.
